Data published in patent EP1087941B9, “THIOLESTERS AND USES THEREOF” (THE UNITED STATES OF AMERICA, as represented by THE …, priority 1998, dated 1999).
Where two headings read alike, the source gives them in different places.

What was measured:
HIV-1 NL4-3 = assay: Virucidal (viral inactivation) assay on MAGI-CCR-5 cells; type: cell-based
Experimental: The cell-based p24 attachment assay was performed as described in Rice (1995) Science 270:1194-1197. Viral inactivation assays were carried out as described in Rice (1995) Science 270:1194-1197, and Turpin (1997) supra, with minor modifications. Briefly, MAGI-CCR-5 cells were plated (4 x 10^4 cells per well) in flat bottomed 2-cm well plates for 24 h, after which the culture media was removed and compound-treated virus was added. The virus used was obtained by transient transfection of pNL4-3 into HeLa cells yielding the replication competent NL4-3 virus. Virus containing supernatants were treated for 2 h at 37°C after which residual compound was removed by centrifugation (18,000 x g, 1h, 4°C). Virus pellets were resuspended and placed on the MAGI-CCR-5 monolayers and cultured for 48 h. Monolayers were fixed and stained with X-gal solution and blue cells counted.
NCp7 cross-linking is associated with viral inactivation. Whether the ability to crosslink the nucleocapsid protein, as determined by Western blotting, correlated with the ability to inactivate the viruses was tested in a virucidal assay. Virus stocks of HIV-1 NL4-3 were incubated with various thiolester compounds. The virus was obtained by transient transfection of a replication-competent pNL4-3 plasmid into HeLa cells. Residual thiolester was removed by centrifugation. The virus pellet was resuspended in culture media and used to infect MAGI-CCR-5 cells. At 48 hours post-infection, the cells were washed and stained with X-Gal. Compounds 44 and 45 were virucidal with I50 (concentration resulting in 50% virus inactivation) values of 12.3 µM and 13.2 µM, respectively.

U1 cells = assay: Cell viability of TNFα-induced U1 cells; type: cell-based; settings: for cellular toxicity: high test dose of 100 µM; for toxicity: higher dose testing (300 µM)
Experimental: (§1) Thiolester compounds were also tested for their ability to inhibit HIV-1 replication in TNFα-induced U1 and ACH-2 cells. U1 cells were induced with 5 ng/ml of TNFα in the presence of various concentrations of the thiolesters 44, 45 or 47. Forty-eight hours later the cultures were characterized for virus p24 antigen production and cell viability. […] Compound 44 killed 60% of the cells at 200 µM. […] Precursor processing evaluation performed as described by Turpin (1997) Antiviral Chem. Chemother. 8:60-69. Thus, thiolester PATEs initiate intracellular disulfide cross-linking of precursor polyproteins during late phase virus assembly and mediate a direct virucidal effect via an attack on the mature NCp7 retroviral zinc fingers in the cell-free virus.

[1] = tested on: fusion of the HL2/3 and MAGI-CCR-5 cells; assay: Fusion assay, HL2/3 and MAGI-CCR-5 co-culture with beta-galactosidase reporter; type: cell-based; settings: for IC50: Table 7, read-out: Fusion I50
Experimental: Determination of the effect of the test compounds on viral fusion were carried out as follows. Briefly, HL2/3 cells stably expressing HIV-1 Tat and cell surface gp120 and MAGI-CCR-5 cells stably expressing CD4 and CCR5 on their cell surface, containing a β-galactosidase reporter gene under the control of the HIV-1 LTR were pretreated with test compound for 1 h at 37°C. After incubation, the cells were mixed in a 4 to 1 ratio (2 x 10^5 MAGI-CCR-5 to 8 x 10^5 HL2/3 cells) and co-cultured for 18 h at 37°C; cultures were fixed and stained with X-gal solution for β-galactosidase activity. Blue cells represented the Tat transactivation of the HIV-1 LTR upon fusion of the HL2/3 and MAGI-CCR-5 cells via the CD4/CCR5 co-receptor gp 120 interaction.

[2] = molecular target: T1, recombinant HIV-1 protease (Human immunodeficiency virus type 1 group M subtype B, UniProt P03366); assay: HPLC-based protease substrate cleavage assay; type: biochemical; settings: for IC50: Table 7, high dose test of 100 µM, read-out: Protease I50
T1 construct: Substrate cleavage of recombinant HIV-1 protease
Experimental: The 5-bromovaleroyl thioester, compound 44, and two 5-pyridiniovaleroyl thioesters, compounds 45 and 47, were analyzed in mechanistic and target-based assays. […] Assays for activity against HIV-1 reverse transcriptase rAdT (template/primer) and rCdG (template/primer) using recombinant HIV-1 reverse transcriptase (S. Hughes, ABL Basic Research NCI-FCRDC, Frederick MD) were performed as described by Rice (1997) supra. Substrate cleavage of recombinant HIV-1 protease in the presence of test compounds using an HPLC-based methodology with the artificial substrate Ala-Ser-Glu-Asn-Try- Pro-Ile-Val-amide (Multiple Peptide Systems, San Diego CA) was performed as described by Rice (1997) supra. The ability of recombinant HIV-1 integrase (S. Hughes, ABL Basic Research NCI-FCRDC, Frederick MD) to carry out 3' processing and strand transfer activities in the presence of test compounds was performed as described by Buckheit (1994) AIDS Res. Hum. Retroviruses 10:1497-1506, and Turpin (1998) Antimicrob. Agents Chemother. 42: 487-494.

Sp1 = molecular target: T2, Sp1 (Homo sapiens, UniProt P08047); assay: Sp1 super gel shift EMSA with K562 cell nuclear extracts (specificity); type: biochemical; settings: specificity for CCHC versus CCHH zinc finger
T2 construct: K562 cell nuclear extracts, and antibodies for Sp1 (Spl[PEP2]-G); host or cells: K562 cell nuclear extracts
Experimental: To determine if compound 44, 45 or 47 binding activity was specific for CCHC zinc fingers, a super gel shift EMSA after treatment of K562 cell nuclear extracts with the compounds was performed. This was followed by super shifting with Spl-specific antibody. Spl was chosen because it is a cellular transcription factor that contains three copies of a classical type CCHH zinc finger motif that are required for Sp1 binding to its DNA target. […] Super gel shifting to determine the specificity of zinc finger reactive compounds was carried out using an Sp1 consensus oligomer (Stratagene, La Jolla, CA), K562 cell nuclear extracts, and antibodies for Sp1 (Spl[PEP2]-G) (extracts and Spl Abs from Santa Cruz Biotechnology, Inc., Santa Cruz, CA). The binding reactions of oligonucleotides with K562 nuclear extract, as well as electrophoretic conditions were carried out as described in the Gelshift Buffer Kit, Stratagene, La Jolla, CA.

[3] = tested on: HIV-1 replication in TNFα-induced U1; assay: Inhibition of p24 release from TNFα-induced U1 cells; type: cell-based
Experimental: as §1

[4] = Human immunodeficiency virus 1, NL43, MAGI-CCR5, read-out: Virucidal Activity (I50 µM)
[5] = Human immunodeficiency virus 1, NL43, MAGI-CCR5, read-out: virucidal I50 (concentration resulting in 50% virus inactivation)
[6] = Human immunodeficiency virus 1, 5 ng/ml TNFα, 48 hours, read-out: inhibition of release of HIV-1 virions (p24) from U1 cells, EC50
[7] = Human immunodeficiency virus 1, Table 9, read-out: U1 Inhibition of p24 (EC50 µM)

T2 sequence (P08047 whole entry): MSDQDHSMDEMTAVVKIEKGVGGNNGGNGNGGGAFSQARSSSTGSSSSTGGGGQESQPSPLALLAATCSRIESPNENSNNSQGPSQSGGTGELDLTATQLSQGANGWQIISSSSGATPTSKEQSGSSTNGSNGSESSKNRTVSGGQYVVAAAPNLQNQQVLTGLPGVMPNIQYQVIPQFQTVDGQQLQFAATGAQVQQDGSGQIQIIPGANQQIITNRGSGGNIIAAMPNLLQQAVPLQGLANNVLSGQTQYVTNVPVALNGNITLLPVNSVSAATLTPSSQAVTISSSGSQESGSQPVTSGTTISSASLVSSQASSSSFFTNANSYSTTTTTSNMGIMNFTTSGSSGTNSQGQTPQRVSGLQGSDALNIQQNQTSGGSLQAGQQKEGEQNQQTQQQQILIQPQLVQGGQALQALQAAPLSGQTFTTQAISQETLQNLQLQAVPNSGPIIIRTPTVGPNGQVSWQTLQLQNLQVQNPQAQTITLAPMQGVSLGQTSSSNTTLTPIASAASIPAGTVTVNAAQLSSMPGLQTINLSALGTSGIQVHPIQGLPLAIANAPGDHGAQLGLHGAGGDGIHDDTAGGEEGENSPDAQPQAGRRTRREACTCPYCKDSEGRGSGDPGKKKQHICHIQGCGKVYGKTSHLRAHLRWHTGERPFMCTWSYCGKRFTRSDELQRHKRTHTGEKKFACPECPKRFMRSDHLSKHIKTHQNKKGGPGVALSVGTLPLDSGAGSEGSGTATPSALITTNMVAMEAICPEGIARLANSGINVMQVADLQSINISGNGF

| SMILES | IC50 (HIV-1 NL4-3; [4]) | IC50 (HIV-1 NL4-3; [5]) | cellular toxicity (U1 cells) | toxicity (U1 cells) | inhibition of fusion to host cells [1] | IC50 [1] | inhibition of HIV-1 protease enzyme activity [2] | IC50 [2] | effect on super shifting of Sp1 bound to its DNA target (Sp1) | EC50 [3, 6] | EC50 [3, 7] | cells killed (U1 cells; at 200 µM) | EC50 ([3]; Human immunodeficiency virus 1, 48 h, read-out: inhibition of release of HIV-1 virions (p24) from U1 cells, EC50) | EC50 ([3]; Human immunodeficiency virus 1, read-out: U1 Inhibition of p24 (EC50 µM)) |
| --- | --- | --- | --- | --- | --- | --- | --- | --- | --- | --- | --- | --- | --- | --- |
| CC(=O)NS(=O)(=O)c1ccc(NC(=O)c2ccccc2SC(=O)CCCC[n+]2ccccc2)cc1 [Compound 45, N-[2-(5-pyridinio-valeroylthio)benzoyl]sulfacetamide bromide] | 13.2 µM | 13.2 µM | No cellular toxicity was evident | no toxicity | did not inhibit | 77 µM | did not inhibit | > 100 µM | failed to alter the pattern of super shifting | 42.2 µM | 42.2 µM | – | – | – |
| CC(=O)NS(=O)(=O)c1ccc(NC(=O)c2ccccc2SC(=O)CCCCBr)cc1 [Compound 44, N-[2-(5-bromovaleroylthio)benzoyl]sulfacetamide] | 12.3 µM | 12.3 µM | No cellular toxicity was evident | – | did not inhibit | > 100 µM | did not inhibit | > 100 µM | failed to alter the pattern of super shifting | 94 µM | 94 µM | 60% | – | – |
| O=C(CCCC[n+]1ccccc1)Sc1ccccc1C(=O)Nc1ccc(S(=O)(=O)c2ccc([N+](=O)[O-])cc2)cc1 [Compound 47] | 2.1 µM | 2.1 µM | No cellular toxicity was evident | no toxicity | did not inhibit | 99 µM | did not inhibit | – | failed to alter the pattern of super shifting | – | – | – | 10.7 µM | 10.7 µM |
